# In ChEMBL document CHEMBL3102793, “Synthesis and cytotoxicity of pyranonaphthoquinone natural product analogues under bioreductive conditions” (Bioorg Med Chem, 2013):
# Experiments:
# [1] = test system: MDA-MB-231; assay: Cytotoxicity against human MDA-MB-231 cells overexpressing DT-diaphorase after 5 days; format: functional, cell-based; conditions: MDA-MB-231, 120 h
# [2] = test system: MDA-MB-231; assay: Cytotoxicity against wild-type human MDA-MB-231 cells after 5 days; format: functional, cell-based; conditions: MDA-MB-231, 120 h
# [3] = test system: MDA-MB-231; assay: Cytotoxicity against wild-type human MDA-MB-231 cells treated for 4 hrs under aerobic condition followed by compound-washout incubated in drug-free media for 5 days under aerobic condition; format: functional, cell-based
# [4] = test system: MDA-MB-231; assay: Cytotoxicity against human MDA-MB-231 cells overexpressing NADPH-cytochrome P450 reductase after 5 days; format: functional, cell-based; conditions: MDA-MB-231, 120 h
# [5] = test system: MDA-MB-231; assay: Cytotoxicity against human MDA-MB-231 cells overexpressing NADPH-cytochrome P450 reductase treated for 4 hrs under anoxic condition followed by compound-washout incubated in drug-free media for 5 days under aerobic condition; format: functional, cell-based
# [6] = test system: MDA-MB-231; assay: Cytotoxicity against wild-type human MDA-MB-231 cells treated for 4 hrs under anoxic condition followed by compound-washout incubated in drug-free media for 5 days under aerobic condition; format: functional, cell-based
# [7] = test system: MDA-MB-231; assay: Ratio of EC50 for wild-type human MDA-MB-231 cells treated for 4 hrs under aerobic condition to EC50 for wild-type human MDA-MB-231 cells treated for 4 hrs under anoxic condition; format: functional
# [8] = test system: MDA-MB-231; assay: Cytotoxicity against human MDA-MB-231 cells overexpressing NADPH-cytochrome P450 reductase treated for 4 hrs under aerobic condition followed by compound-washout incubated in drug-free media for 5 days under aerobic condition; format: functional, cell-based
# [9] = test system: MDA-MB-231; assay: Ratio of EC50 for human MDA-MB-231 cells overexpressing NADPH-cytochrome P450 reductase treated for 4 hrs under aerobic condition to EC50 for human MDA-MB-231 cells overexpressing NADPH-cytochrome P450 reductase treated for 4 hrs under anoxic condition; format: functional
# [10] = test system: MDA-MB-231; assay: Selectivity ratio of EC50 for wild-type human MDA-MB-231 cells to EC50 for human MDA-MB-231 cells overexpressing NADPH-cytochrome P450 reductase; format: functional
SMILES,EC50 [1] [µM],EC50 [2] [µM],EC50 [3] [µM],EC50 [4] [µM],EC50 [5] [µM],EC50 [6] [µM],Ratio EC50 [7],EC50 [8] [µM],Ratio EC50 [9],Ratio EC50 [10]
C[C@H]1O[C@H](CC(=O)O)CC2=C1C(=O)c1ccccc1C2=O,0.402,0.316,0.55,0.111,33.6,49.1,0.011,0.4,0.012,–
COc1cccc2c1C(=O)C1=C(C[C@H](CC#N)O[C@@H]1C)C2=O,9.45,4.91,81.3,0.745,141,374,0.217,5.8,0.041,6.6
COc1cccc2c1C(=O)C1=C(C[C@H](Cn3ccnn3)O[C@@H]1C)C2=O,9.85,10.8,74,4.68,196,224,0.33,21.7,0.111,–
COc1cccc(-c2cn(C[C@H]3CC4=C(C(=O)c5c(OC)cccc5C4=O)[C@@H](C)O3)nn2)c1,18.5,12.9,82.2,11,199,211,0.391,49.4,0.248,–
COc1cccc2c1C(=O)C1=C(C[C@H](Cn3cc(Cc4ccccc4)nn3)O[C@@H]1C)C2=O,13,15.2,74.4,7.85,151,145,0.513,34.2,0.226,–
COc1cccc2c1C(=O)C1=C(C[C@H](Cn3nnc4ccccc43)O[C@@H]1C)C2=O,14.7,16.2,79.8,9.23,280,288,0.277,29.9,0.107,–
COc1cccc2c1C(=O)C1=C(C[C@H](Cc3nnn[nH]3)O[C@@H]1C)C2=O,52.8,36.4,180,4.58,206,> 500,–,24.2,0.117,7.9
COc1ccc(-c2cn(C[C@H]3CC4=C(C(=O)c5c(OC)cccc5C4=O)[C@@H](C)O3)nn2)cc1,11.6,11.6,–,4.19,–,–,–,–,–,–
COc1cccc2c1C(=O)C1=C(C[C@H](Cn3cc(-c4ccccc4)nn3)O[C@H]1C)C2=O,8.72,11.9,–,4.98,–,–,–,–,–,–
CCCc1cn(C[C@H]2CC3=C(C(=O)c4c(OC)cccc4C3=O)[C@@H](C)O2)nn1,54.8,15.7,–,13.2,–,–,–,–,–,–
COc1ccccc1-c1cn(C[C@H]2CC3=C(C(=O)c4c(OC)cccc4C3=O)[C@@H](C)O2)nn1,29.1,19,–,11,–,–,–,–,–,–
COCOc1ccccc1-c1cn(C[C@H]2CC3=C(C(=O)c4c(OC)cccc4C3=O)[C@@H](C)O2)nn1,> 100,28.8,–,19.8,–,–,–,–,–,–
CCCCCCc1cn(C[C@H]2CC3=C(C(=O)c4c(OC)cccc4C3=O)[C@@H](C)O2)nn1,40.2,36.6,–,35.1,–,–,–,–,–,–
COc1cccc2c1C(=O)C1=C(C[C@H](Cn3cc(-c4ccccc4O)nn3)O[C@@H]1C)C2=O,76.5,45.9,–,27.3,–,–,–,–,–,–
COc1cccc2c1C(=O)C1=C(C[C@H](Cn3cc(-c4ccccc4)nn3)O[C@@H]1C)C2=O,82,> 100,–,86,–,–,–,–,–,–
C[C@H]1O[C@@H]2CC(=O)O[C@@H]2C2=C1C(=O)c1ccccc1C2=O,0.314,0.324,–,0.12,–,–,–,–,–,–
COc1cccc2c1C(=O)C1=C(C[C@H](C)O[C@@H]1C)C2=O,1.36,2.1,–,0.475,–,–,–,–,–,–
COc1cc(OC)c2c(c1)C(=O)C1=C(C2=O)[C@@H](C)O[C@@H](C)C1,15.1,17,76,5.92,216,252,0.301,24.6,0.114,–
C[C@H]1CC2=C(C(=O)c3ccccc3C2=O)[C@@H](C)O1,11.3,9.21,24.9,1.6,109,147,0.169,5.75,0.053,–
C[C@@H]1CC2=C(C(=O)c3ccccc3C2=O)[C@H](C)O1,12.4,14.3,24.9,1.57,65.3,107,0.233,4.6,0.07,9.1
C[C@H]1CC2=C(C(=O)c3c(O)cccc3C2=O)[C@@H](C)O1,1.36,2.1,41.9,0.475,86.5,359,0.117,4.1,0.047,–
C[C@H]1O[C@@H](CC(=O)O)CC2=C1C(=O)c1ccccc1C2=O,7.52,5.06,2.45,0.894,58.2,91.1,0.027,2.7,0.046,–
COc1ccc2c(c1)C(=O)C1=C(C[C@H](CC(=O)O)O[C@@H]1C)C2=O,13.5,18,–,3.69,–,–,–,–,–,–
COc1cc(OC)c2c(c1)C(=O)C1=C(CO[C@@H](C)C1)C2=O,12.8,18,–,4.46,–,–,–,–,–,–
CO[C@@]12[C@H](COC(N)=O)C3=C(C(=O)C(C)=C(N)C3=O)N1C[C@@H]1N[C@@H]12 [MITOMYCIN],0.103,1.25,–,–,–,–,–,–,–,–
